Experiments:
[1] = molecular target: T1, Ephrin type-B receptor 4 (Homo sapiens, UniProt P54760); experiment: Inhibition of recombinant human N-terminal His6-tagged EphB4 kinase domain (E605 to E890 residues) expressed in baculovirus using poly-AEKY as substrate after 150 mins in presence of gamma33P-ATP by liquid scintillation spectrometry
T1 sequence (P54760 whole entry): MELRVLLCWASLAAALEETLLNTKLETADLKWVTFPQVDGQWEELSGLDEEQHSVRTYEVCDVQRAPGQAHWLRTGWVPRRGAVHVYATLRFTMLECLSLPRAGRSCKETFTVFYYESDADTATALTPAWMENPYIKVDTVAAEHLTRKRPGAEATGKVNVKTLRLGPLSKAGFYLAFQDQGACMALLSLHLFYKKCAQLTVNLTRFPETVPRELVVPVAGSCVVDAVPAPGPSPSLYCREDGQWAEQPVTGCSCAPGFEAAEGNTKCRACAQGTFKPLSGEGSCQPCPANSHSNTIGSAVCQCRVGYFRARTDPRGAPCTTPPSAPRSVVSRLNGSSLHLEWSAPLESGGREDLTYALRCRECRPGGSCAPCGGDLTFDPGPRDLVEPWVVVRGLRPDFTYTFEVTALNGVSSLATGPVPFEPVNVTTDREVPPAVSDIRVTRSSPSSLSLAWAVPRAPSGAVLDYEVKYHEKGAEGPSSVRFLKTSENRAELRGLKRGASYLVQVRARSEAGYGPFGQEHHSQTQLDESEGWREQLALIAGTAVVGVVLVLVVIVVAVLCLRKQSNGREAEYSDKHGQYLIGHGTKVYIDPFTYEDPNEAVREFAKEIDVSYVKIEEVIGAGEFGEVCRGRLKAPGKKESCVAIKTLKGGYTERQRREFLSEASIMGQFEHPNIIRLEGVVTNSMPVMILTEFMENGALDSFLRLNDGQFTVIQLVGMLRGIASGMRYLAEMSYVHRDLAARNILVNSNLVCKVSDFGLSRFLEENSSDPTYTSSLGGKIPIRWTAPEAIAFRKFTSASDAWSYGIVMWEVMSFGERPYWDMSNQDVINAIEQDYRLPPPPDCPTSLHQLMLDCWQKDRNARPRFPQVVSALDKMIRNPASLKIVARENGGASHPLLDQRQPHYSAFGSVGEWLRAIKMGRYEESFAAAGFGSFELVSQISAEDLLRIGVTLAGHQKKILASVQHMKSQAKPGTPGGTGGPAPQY

[2] = molecular target: Receptor tyrosine-protein kinase erbB-2 (Homo sapiens, UniProt P04626); experiment: Inhibition of recombinant human N-terminal GST His6-tagged thrombin cleavage site-fused ErbB2 kinase domain (Q679 to V1255 residues) expressed in baculovirus infected insect Sf9 cells using biotinylated poly-EY as substrate after 60 mins by alphascreen assay
Chain of Receptor tyrosine-protein kinase erbB-2 (P04626 whole entry, the tested form may be a part): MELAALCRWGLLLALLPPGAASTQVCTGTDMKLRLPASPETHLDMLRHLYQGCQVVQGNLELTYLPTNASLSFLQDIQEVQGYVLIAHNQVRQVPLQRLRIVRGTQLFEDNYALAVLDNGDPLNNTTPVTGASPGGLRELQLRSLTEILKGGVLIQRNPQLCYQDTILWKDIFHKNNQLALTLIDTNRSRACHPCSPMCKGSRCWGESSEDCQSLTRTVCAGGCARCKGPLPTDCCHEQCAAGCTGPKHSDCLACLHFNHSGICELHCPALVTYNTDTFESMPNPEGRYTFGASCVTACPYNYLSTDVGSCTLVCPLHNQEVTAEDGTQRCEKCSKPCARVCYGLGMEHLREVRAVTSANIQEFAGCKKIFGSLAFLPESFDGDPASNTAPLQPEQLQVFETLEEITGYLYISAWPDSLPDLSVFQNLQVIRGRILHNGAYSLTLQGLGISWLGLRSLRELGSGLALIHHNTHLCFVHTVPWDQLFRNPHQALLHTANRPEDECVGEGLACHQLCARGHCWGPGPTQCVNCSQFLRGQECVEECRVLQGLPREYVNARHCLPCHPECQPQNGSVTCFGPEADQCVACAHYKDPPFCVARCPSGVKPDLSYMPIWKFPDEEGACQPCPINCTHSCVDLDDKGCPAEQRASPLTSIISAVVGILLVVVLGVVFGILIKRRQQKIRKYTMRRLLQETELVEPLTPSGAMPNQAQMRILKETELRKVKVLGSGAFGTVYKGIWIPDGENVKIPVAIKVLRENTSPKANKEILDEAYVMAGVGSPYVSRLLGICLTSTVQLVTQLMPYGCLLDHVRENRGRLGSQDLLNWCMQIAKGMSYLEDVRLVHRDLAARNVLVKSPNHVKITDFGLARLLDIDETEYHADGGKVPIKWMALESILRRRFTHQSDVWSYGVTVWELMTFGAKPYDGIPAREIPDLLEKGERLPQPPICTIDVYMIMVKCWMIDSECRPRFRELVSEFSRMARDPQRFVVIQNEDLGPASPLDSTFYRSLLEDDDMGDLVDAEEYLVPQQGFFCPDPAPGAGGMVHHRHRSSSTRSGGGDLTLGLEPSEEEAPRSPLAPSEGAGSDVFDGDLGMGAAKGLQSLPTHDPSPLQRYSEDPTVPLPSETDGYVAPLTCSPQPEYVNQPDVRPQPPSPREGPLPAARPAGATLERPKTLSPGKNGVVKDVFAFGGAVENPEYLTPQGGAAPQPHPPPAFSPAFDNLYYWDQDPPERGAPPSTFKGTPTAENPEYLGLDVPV

[3] = molecular target: Ephrin type-A receptor 2 (Homo sapiens, UniProt P29317); experiment: Inhibition of recombinant human N-terminal His6-tagged EphA2 (N598 to R890 residues) expressed in baculovirus using poly-EY as substrate after 180 mins by luciferase coupled chemiluminescence assay
Chain of Ephrin type-A receptor 2 (P29317 whole entry, the tested form may be a part): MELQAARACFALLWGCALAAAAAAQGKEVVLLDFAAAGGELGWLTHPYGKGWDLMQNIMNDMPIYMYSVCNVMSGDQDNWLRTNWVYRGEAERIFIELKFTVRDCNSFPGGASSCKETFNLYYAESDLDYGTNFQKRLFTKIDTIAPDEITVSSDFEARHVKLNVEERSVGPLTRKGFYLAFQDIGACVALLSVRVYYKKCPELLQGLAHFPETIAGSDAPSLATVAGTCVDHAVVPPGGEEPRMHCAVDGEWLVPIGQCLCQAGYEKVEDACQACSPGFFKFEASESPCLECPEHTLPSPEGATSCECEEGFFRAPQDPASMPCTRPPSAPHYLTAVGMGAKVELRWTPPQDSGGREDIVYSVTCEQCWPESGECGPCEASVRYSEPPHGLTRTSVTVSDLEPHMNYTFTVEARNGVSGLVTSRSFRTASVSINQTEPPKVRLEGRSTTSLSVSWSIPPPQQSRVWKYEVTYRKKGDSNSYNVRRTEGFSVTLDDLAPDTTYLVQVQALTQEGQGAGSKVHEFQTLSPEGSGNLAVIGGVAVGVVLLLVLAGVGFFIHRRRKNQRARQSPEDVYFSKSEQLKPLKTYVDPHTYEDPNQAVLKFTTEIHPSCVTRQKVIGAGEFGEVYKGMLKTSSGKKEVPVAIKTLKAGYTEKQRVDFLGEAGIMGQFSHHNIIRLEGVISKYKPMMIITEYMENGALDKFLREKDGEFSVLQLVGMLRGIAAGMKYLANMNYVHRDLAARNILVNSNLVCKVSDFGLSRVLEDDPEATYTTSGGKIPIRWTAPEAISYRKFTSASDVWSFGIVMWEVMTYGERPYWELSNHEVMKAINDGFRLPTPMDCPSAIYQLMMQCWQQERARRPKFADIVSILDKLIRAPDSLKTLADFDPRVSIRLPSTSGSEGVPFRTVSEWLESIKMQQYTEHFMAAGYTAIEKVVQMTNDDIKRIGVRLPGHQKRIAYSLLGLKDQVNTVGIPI

[4] = molecular target: Vascular endothelial growth factor receptor 2 (Homo sapiens, UniProt P35968); experiment: Inhibition of recombinant human N-terminal GST-fused KDR (D807 to V1356 residues) expressed in baculovirus infected […] insect Sf9 cells using poly-EY as substrate after 240 mins by luciferase coupled chemiluminescence assay
Chain of Vascular endothelial growth factor receptor 2 (P35968 whole entry, the tested form may be a part): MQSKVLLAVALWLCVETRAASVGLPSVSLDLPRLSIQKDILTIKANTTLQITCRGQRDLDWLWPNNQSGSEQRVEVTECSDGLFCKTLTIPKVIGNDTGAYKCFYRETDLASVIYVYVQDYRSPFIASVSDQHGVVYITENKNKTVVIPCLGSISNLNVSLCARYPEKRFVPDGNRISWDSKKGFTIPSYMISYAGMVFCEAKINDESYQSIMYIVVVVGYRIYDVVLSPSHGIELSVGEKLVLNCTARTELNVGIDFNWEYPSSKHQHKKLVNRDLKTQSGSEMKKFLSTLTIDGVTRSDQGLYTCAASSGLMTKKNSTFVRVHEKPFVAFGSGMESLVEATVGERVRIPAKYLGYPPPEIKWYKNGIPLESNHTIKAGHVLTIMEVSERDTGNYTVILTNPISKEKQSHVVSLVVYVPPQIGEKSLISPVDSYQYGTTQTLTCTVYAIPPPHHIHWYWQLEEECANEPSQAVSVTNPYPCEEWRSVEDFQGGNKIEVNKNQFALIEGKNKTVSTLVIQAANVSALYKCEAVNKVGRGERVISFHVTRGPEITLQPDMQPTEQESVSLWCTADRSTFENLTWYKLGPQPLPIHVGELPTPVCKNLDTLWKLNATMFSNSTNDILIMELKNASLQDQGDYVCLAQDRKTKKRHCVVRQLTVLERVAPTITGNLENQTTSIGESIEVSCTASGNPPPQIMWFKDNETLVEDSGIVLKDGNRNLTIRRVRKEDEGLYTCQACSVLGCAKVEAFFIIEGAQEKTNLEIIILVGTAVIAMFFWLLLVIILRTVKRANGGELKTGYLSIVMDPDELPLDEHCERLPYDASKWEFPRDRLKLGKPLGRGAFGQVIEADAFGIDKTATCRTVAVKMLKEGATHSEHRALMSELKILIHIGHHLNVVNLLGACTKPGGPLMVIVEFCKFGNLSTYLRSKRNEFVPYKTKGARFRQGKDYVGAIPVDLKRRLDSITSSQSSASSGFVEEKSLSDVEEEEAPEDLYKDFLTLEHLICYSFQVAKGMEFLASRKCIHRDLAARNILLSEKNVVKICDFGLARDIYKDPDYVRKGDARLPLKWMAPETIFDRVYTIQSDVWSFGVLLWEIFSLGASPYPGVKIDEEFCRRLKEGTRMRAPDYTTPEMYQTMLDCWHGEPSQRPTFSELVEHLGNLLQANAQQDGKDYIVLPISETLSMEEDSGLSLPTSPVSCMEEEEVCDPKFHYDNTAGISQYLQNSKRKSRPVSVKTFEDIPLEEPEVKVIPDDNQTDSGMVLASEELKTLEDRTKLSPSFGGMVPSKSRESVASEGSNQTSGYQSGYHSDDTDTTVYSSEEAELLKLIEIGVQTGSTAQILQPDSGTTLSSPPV

IC50 [1] | IC50 [2] | IC50 [3] | IC50 [4] | SMILES
1000 to 20000 nM | 1000 to 20000 nM | 1000 to 20000 nM | 1000 to 20000 nM | COc1cc2c(Nc3ccc(Br)c(Cl)c3)ncnc2cc1O[C@@H]1CO[C@H]2[C@@H]1OC[C@@H]2OS(C)(=O)=O
50 to 1000 nM | 50 to 1000 nM | 50 to 1000 nM | 50 to 1000 nM | COc1cc2c(Nc3ccc(Br)c(C)c3)ncnc2cc1OCC1CN(C)CCO1 (stereo not drawn)
< 50 nM | < 50 nM | 50 to 1000 nM | 50 to 1000 nM | CN/C(=N\C#N)N1CCOC(COc2cc3ncnc(Nc4ccc(Cl)c(C)c4)c3cc2OC)C1 (stereo not drawn)
< 50 nM | 50 to 1000 nM | 50 to 1000 nM | 50 to 1000 nM | COc1cc2c(Nc3ccc(Cl)c(Cl)c3)ncnc2cc1OCC1CN(S(=O)(=O)CCCCl)CCO1 (stereo not drawn)
< 50 nM | < 50 nM | 50 to 1000 nM | 50 to 1000 nM | COc1cc2c(Nc3ccc(Cl)c(Cl)c3)ncnc2cc1OCC1CN(C(=O)c2c(C)noc2C)CCO1 (stereo not drawn)
50 to 1000 nM | 1000 to 20000 nM | 1000 to 20000 nM | 50 to 1000 nM | COc1cc2c(Nc3ccc(Br)c(Cl)c3)ncnc2cc1OC1CCN(C)C1 (stereo not drawn)
< 50 nM | 50 to 1000 nM | < 50 nM | < 50 nM | COc1cc2c(Nc3cc(Cl)c(Br)cc3F)ncnc2cc1OCC1CN(C)C(C)(C)CO1 (stereo not drawn)
50 to 1000 nM | 50 to 1000 nM | 50 to 1000 nM | 50 to 1000 nM | COc1cc2c(Nc3ccc(Cl)c(Cl)c3)ncnc2cc1OCCC1CNC(C)(C)CO1 (stereo not drawn)
< 50 nM | < 50 nM | 50 to 1000 nM | 50 to 1000 nM | COc1cc2c(Nc3ccc(Cl)c(Cl)c3)ncnc2cc1OCC1CN(S(C)(=O)=O)CCCO1 (stereo not drawn)
50 to 1000 nM | 1000 to 20000 nM | 1000 to 20000 nM | 1000 to 20000 nM | CN[C@H]1CO[C@H]2[C@@H]1OC[C@@H]2Oc1cc2ncnc(Nc3ccc(Br)c(Cl)c3)c2cc1OC
< 50 nM | < 50 nM | 50 to 1000 nM | 50 to 1000 nM | CCNC(=NC#N)N1CCOC(COc2cc3ncnc(Nc4ccc(Cl)c(Cl)c4)c3cc2OC)C1 (stereo not drawn)
< 50 nM | 50 to 1000 nM | < 50 nM | 50 to 1000 nM | COc1cc2c(Nc3ccc(F)c(Cl)c3F)ncnc2cc1OCC1CN(C)C(C)(C)CO1 (stereo not drawn)
< 50 nM | 50 to 1000 nM | 50 to 1000 nM | < 50 nM | COc1cc2c(Nc3ccc(C)c(Br)c3)ncnc2cc1OCC1CN(C)CCO1 (stereo not drawn)
50 to 1000 nM | 1000 to 20000 nM | 1000 to 20000 nM | 1000 to 20000 nM | COc1cc2c(Nc3ccc(Br)c(Cl)c3)ncnc2cc1O[C@H]1CO[C@H]2[C@@H]1OC[C@@H]2N1CCOCC1
50 to 1000 nM | 50 to 1000 nM | 1000 to 20000 nM | 1000 to 20000 nM | COc1cc2c(Nc3ccc(Br)c(Cl)c3)ncnc2cc1O[C@H]1CO[C@H]2[C@@H]1OC[C@@H]2O
50 to 1000 nM | 50 to 1000 nM | 50 to 1000 nM | < 50 nM | COc1cc2c(Nc3cc(F)c(Br)c(F)c3)ncnc2cc1OCC1CN(C)CCO1 (stereo not drawn)
50 to 1000 nM | 50 to 1000 nM | 50 to 1000 nM | < 50 nM | COc1cc2c(Nc3cc(F)c(Br)cc3F)ncnc2cc1OCC1CN(C)CCO1 (stereo not drawn)
< 50 nM | < 50 nM | < 50 nM | < 50 nM | CC(C)Oc1cc2c(Nc3ccc(Cl)c(Cl)c3)ncnc2cc1OCC1CN(C)CCO1 (stereo not drawn)
< 50 nM | < 50 nM | < 50 nM | < 50 nM | COc1cc2c(Nc3ccc(Br)c(Cl)c3F)ncnc2cc1OCC1CN(C)CCO1 (stereo not drawn)
< 50 nM | 50 to 1000 nM | 50 to 1000 nM | < 50 nM | CCCCN1CCOC(COc2cc3ncnc(Nc4ccc(Cl)c(Cl)c4)c3cc2OC)C1 (stereo not drawn)
50 to 1000 nM | 1000 to 20000 nM | 1000 to 20000 nM | 1000 to 20000 nM | COc1cc2c(Nc3ccc(Br)c(Cl)c3)ncnc2cc1O[C@H]1CO[C@H]2[C@@H]1OC[C@@H]2SC
< 50 nM | < 50 nM | 50 to 1000 nM | 50 to 1000 nM | CCC(=O)N1CCOC(COc2cc3ncnc(Nc4ccc(Cl)c(Cl)c4)c3cc2OC)C1 (stereo not drawn)

— ChEMBL document CHEMBL3882729, “Receptor-type kinase modulators and methods of use” (2009)
